{"source": "patent US20200069607A1", "about": "“MOUTHWASH FOR TREATING ORAL CANCERS” (THE BOARD OF REGENTS OF THE UNIVERSITY OF TEXAS SYSTEM, priority 2016, published 2020)", "key": {"[1]": {"test_system": "Ca127 cells", "assay": "Calcium imaging of Ca127 cells", "format": "cell-based", "conditions": "for effect of inhibitor pre-treatment on calcium influx in response to thymol: Ca127 cells, pre-treatment followed by thymol 400 μM", "text": "(§1) FIGS. 6A-D: Calcium imaging of CHO cells overexpressing TRPA1 (FIG. 6A) or TRPV1 (FIG. 6B). Calcium imaging of cancer cell lines, Ca127 (FIG. 6C) and HeLa (FIG. 6D).\n(§2) […]. […] […]."}, "[2]": {"test_system": "Ca127-derived tumors", "assay": "Ca127 mouse xenograft, intra-tumor injection"}, "[3]": {"target": "T1, TRPV1 (Homo sapiens, UniProt Q8NER1)", "T1 construct": "expressed in transfected cells; host or cells: CHO cells", "T1 sequence (Q8NER1 whole entry, species assumed)": "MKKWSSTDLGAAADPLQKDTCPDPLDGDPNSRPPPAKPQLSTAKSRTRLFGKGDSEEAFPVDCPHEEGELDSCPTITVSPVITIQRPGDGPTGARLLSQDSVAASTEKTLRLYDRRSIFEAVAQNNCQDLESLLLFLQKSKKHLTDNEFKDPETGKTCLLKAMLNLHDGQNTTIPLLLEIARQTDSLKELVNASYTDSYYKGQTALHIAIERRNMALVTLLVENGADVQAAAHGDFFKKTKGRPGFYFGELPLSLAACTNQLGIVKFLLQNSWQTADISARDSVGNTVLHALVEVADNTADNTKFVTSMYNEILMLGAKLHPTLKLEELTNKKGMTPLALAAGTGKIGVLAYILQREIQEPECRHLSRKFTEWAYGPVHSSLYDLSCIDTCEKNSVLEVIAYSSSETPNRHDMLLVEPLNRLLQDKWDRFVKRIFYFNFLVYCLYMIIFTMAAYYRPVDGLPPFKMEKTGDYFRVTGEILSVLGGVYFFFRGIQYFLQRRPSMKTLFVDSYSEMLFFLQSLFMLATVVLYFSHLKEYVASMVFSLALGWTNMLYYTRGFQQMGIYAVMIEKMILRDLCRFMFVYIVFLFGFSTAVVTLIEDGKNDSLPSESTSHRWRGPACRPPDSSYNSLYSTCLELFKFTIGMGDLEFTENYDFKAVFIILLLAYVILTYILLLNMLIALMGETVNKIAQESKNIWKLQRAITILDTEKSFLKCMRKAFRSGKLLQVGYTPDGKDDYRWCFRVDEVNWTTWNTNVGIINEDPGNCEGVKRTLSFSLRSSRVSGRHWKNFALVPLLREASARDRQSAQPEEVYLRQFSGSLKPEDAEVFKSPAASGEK", "assay": "Calcium imaging of CHO cells overexpressing TRPV1", "format": "cell-based", "text": "as §1"}, "[4]": {"test_system": "HeLa-derived tumors", "assay": "HeLa mouse xenograft, intra-tumor injection"}, "[5]": {"test_system": "cleaved PARP (c-PARP)", "assay": "Western blot of cleaved PARP, Ca127 cells", "format": "cell-based", "conditions": "increasing concentrations of thymol", "text": "as §2"}, "[6]": {"test_system": "solid tumors (breast, lung, prostate, colon, cervical)", "assay": "Anti-tumor effects against solid tumors (inventor's data)", "conditions": "all types of solid tumors (breast, lung, prostate, colon, cervical)", "text": "However head and neck cancer is 90% of squamous cell origin."}, "[7]": {"test_system": "Ca127", "assay": "Clonogenic assay, Ca127 cells", "quoted_text": "(§3) FIGS. 3A-D: Clonogenic Assay of Ca127 (FIGS. 3A and 3C) and HeLa cells (FIGS. 3B and 3D)."}, "[8]": {"test_system": "Ca127 (OSCC) cells", "assay": "Cell viability / proliferation (MTS) assay, Ca127 cells", "format": "cell-based", "conditions": "treated 24 hours, p<0.001, read-out: IC50, anti-proliferative effect"}, "[9]": {"target": "T2, TRPA1 (Homo sapiens, UniProt O75762)", "T2 construct": "expressed in transfected cells; host or cells: CHO cells", "T2 sequence (O75762 whole entry, species assumed)": "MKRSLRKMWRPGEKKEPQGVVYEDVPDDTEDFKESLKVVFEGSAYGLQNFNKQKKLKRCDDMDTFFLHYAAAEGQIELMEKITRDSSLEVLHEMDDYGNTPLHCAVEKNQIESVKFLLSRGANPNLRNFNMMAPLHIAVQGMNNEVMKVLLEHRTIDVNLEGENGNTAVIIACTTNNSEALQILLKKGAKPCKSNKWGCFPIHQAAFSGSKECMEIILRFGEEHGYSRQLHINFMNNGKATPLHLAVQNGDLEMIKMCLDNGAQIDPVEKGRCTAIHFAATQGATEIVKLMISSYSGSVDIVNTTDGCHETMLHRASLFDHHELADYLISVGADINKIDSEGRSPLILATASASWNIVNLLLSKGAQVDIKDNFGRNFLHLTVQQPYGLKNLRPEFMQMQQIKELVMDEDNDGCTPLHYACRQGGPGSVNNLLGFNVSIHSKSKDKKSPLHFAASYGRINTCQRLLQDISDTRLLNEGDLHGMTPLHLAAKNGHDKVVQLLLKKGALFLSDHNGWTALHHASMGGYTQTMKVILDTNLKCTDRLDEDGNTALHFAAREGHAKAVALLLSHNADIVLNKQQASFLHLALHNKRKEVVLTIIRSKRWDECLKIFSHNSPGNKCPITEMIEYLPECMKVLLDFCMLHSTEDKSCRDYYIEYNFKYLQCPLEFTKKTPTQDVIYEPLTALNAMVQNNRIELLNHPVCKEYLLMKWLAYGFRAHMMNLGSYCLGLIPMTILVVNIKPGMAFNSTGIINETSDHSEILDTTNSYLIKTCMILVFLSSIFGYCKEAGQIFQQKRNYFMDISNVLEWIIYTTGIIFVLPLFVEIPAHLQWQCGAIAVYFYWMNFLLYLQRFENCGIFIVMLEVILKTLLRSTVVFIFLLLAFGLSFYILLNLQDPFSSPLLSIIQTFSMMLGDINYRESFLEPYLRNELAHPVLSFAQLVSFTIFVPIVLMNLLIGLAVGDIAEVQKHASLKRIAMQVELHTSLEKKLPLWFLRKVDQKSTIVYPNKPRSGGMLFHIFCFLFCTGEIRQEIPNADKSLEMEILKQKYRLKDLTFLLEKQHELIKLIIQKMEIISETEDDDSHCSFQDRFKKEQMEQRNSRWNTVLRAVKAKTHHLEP", "assay": "Calcium imaging of CHO cells overexpressing TRPA1", "format": "cell-based", "text": "as §1"}, "[10]": {"test_system": "HeLa cells", "assay": "Clonogenic assay, HeLa cells", "quoted_text": "as §3"}, "[11]": {"test_system": "HeLa cells", "assay": "Calcium imaging of HeLa cells", "format": "cell-based", "conditions": "negative for TRPA1, thymol treatment", "text": "as §1, §2"}, "[12]": {"test_system": "cleaved PARP (c-PARP)", "assay": "Western blot of cleaved PARP, HeLa cells", "format": "cell-based", "conditions": "increasing concentrations of thymol", "text": "as §2"}, "[13]": {"test_system": "HeLa (Cervical cancer) cells", "assay": "Cell viability / proliferation assay, HeLa cells", "conditions": "Homo sapiens, 48 h, read-out: IC50, anti-proliferative effect"}}}
{"smiles": "O=C(O)c1ccc(S(=O)(=O)N(Cc2ccc(OC(F)(F)F)cc2)c2ncc(C(F)(F)F)cc2Cl)cc1", "note": "[RQ00203078]", "values": [{"measurement": "effect of inhibitor pre-treatment on calcium influx in response to thymol", "setting": "[1]", "value": "reduced calcium influx"}]}
{"smiles": "Cc1ccc(C(C)C)c(O)c1", "note": "[thymol, 2-isopropyl-5-methylphenol]", "values": [{"measurement": "median tumor volume", "setting": "[2]; Day 26, thymol 4.3 mM every other day, control 400 mm^3", "value": 100, "unit": "mm^3"}, {"measurement": "tumor volume compared to control", "setting": "[2]; by day 16, 4.3 mM intra-tumor every other day, p<0.001", "value": "significant reduction"}, {"measurement": "average tumor volume", "setting": "[2]; thymol 4.3 mM intra-tumor every other day for 26 days, control 400 mm^3", "value": 90, "unit": "mm^3"}, {"measurement": "TRPV1 channel activation (calcium imaging)", "setting": "[3]", "value": "not TRPV1 channels"}, {"measurement": "median tumor volume", "setting": "[4]; Day 26 as printed, thymol 4.3 mM every other day for 22 days, control 900 mm^3", "value": 500, "unit": "mm^3"}, {"measurement": "tumor volume compared to control", "setting": "[4]; by day 18, remained through day 22, 4.3 mM intra-tumor every other day, p<0.001", "value": "significant reduction"}, {"measurement": "average tumor volume", "setting": "[4]; thymol 4.3 mM intra-tumor every other day for 22 days, control 900 mm^3", "value": 500, "unit": "mm^3"}, {"measurement": "activation of cleaved PARP (apoptosis)", "setting": "[5]", "value": "dose-dependent activation"}, {"measurement": "calcium influx", "setting": "[1]; Ca127 cells expressing TRPA1, thymol 400 μM", "value": "small calcium influx"}, {"measurement": "anti-tumor effects", "setting": "[6]", "value": "anti-tumor effects"}, {"measurement": "colony formation", "setting": "[7]; Ca127 (FIGS. 3A-D), one minute exposure, 10 days", "value": "abolished colony formation"}, {"measurement": "colony formation", "setting": "[7]; Ca127, single two minute exposure, 4.3 mM, ten days", "value": "abolished colony formation"}, {"measurement": "IC50", "setting": "[8]", "value": 400, "unit": "µM"}, {"measurement": "TRPA1 channel activation (calcium imaging)", "setting": "[9]", "value": "activates TRPA1 channels"}, {"measurement": "colony formation", "setting": "[10]; HeLa (FIGS. 3A-D), one minute exposure, 10 days", "value": "abolished colony formation"}, {"measurement": "colony formation", "setting": "[10]; HeLa, single two minute exposure, 4.3 mM, ten days", "value": "abolished colony formation"}, {"measurement": "calcium response", "setting": "[11]", "value": "did not respond"}, {"measurement": "activation of cleaved PARP (apoptosis)", "setting": "[12]", "value": "dose-dependent activation"}, {"measurement": "IC50", "setting": "[13]", "value": 400, "unit": "µM"}]}
{"smiles": "CC(C)c1ccc(NC(=O)Cn2cnc3c2c(=O)n(C)c(=O)n3C)cc1", "note": "[HC030031]", "values": [{"measurement": "effect of inhibitor pre-treatment on calcium influx in response to thymol", "setting": "[1]", "value": "nearly abolished all calcium influx"}]}
